Test results: patent publication US9040712B2, “Thiadiazole analogs thereof and methods for treating SMN-deficiency-related-conditions” (NOVARTIS AG, priority 2013, dated 2015)
Where a name gives a salt, the structure may show the parent alone.

The molecules below were run on SMN protein (assay: cellular SMN ELISA (SMN protein elevation)). Conditions: myoblast cell line derived from SMNdelta7 mouse model; 24 hours compound treatment; concentration range 100 pM-10 uM.
Assay type: cell-based
Method in brief: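 Myoblasts derived from the SMNdelta7 mouse model, 3000 cells/well, treated with compound (100 pM–10 uM) for 24 h, then lysed in modified RIPA buffer. SMN protein quantified by sandwich ELISA (anti-SMN mAb capture, rabbit polyclonal detection, HRP/TMB, 450 nm). Results given as fold activation over DMSO and EC50.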
With `Oc1cc(-c2cn[nH]c2)cc(F)c1-c1nnc(N2C[C@H]3CNC[C@H]3C2)s1` [Example 96, 3-fluoro-2-(5-((3aR,6aS)-hexahydropyrrolo[3,4-c]pyrrol-2(1H)-yl)-1,3,4-thiadiazol-2-yl)-5-(1H-pyrazol-4-yl)phenol•Di-hydrochloride salt] the EC50 was 9 nM and the “SMN Activity Fold (fold activation over DMSO control)” value (“SMN Activity Fold” for short) was 2.85 fold.
`CN(c1nnc(-c2c(O)cc(-c3cn[nH]c3)cc2Cl)s1)C1CC(C)(C)NC(C)(C)C1` [Example 97, 3-chloro-2-(5-(methyl(2,2,6,6-tetramethylpiperidin-4-yl)amino)-1,3,4-thiadiazol-2-yl)-5-(1H-pyrazol-4-yl)phenol] was tested, and the “SMN Activity Fold” value was 2.45 fold.
`COc1cc(-n2cccn2)ccc1-c1nnc(CC2CC(C)(C)NC(C)(C)C2)s1` [Example 98, 2-(2-methoxy-4-(1H-pyrazol-1-yl)phenyl)-5-((2,2,6,6-tetramethylpiperidin-4-yl)methyl)-1,3,4-thiadiazole] was tested, and the EC50 was 818 nM and the “SMN Activity Fold” value was 2.19 fold.
With `COc1c(-c2nnc(N(C)C3CC(C)(C)NC(C)(C)C3)s2)c(=O)n(C)c2ccccc12` [Example 101, 4-methoxy-1-methyl-3-(5-(methyl(2,2,6,6-tetramethylpiperidin-4-yl)amino)-1,3,4-thiadiazol-2-yl)quinolin-2(1H)-one] the EC50 was 742 nM and the “SMN Activity Fold” value was 2.51 fold.
With `CN(c1nnc(-c2c(O)c3ccccc3n(C)c2=O)s1)C1CC(C)(C)NC(C)(C)C1` [Example 102, 4-hydroxy-1-methyl-3-(5-(methyl(2,2,6,6-tetramethylpiperidin-4-yl)amino)-1,3,4-thiadiazol-2-yl)quinolin-2(1H)-one] the EC50 was 24 nM and the “SMN Activity Fold” value was 2.71 fold.
`CN(c1nnc(-c2cc3ccccc3[nH]c2=O)s1)C1CC(C)(C)NC(C)(C)C1` [Example 103, 3-(5-(methyl(2,2,6,6-tetramethylpiperidin-4-yl)amino)-1,3,4-thiadiazol-2-yl)quinolin-2(1H)-one] was tested, and the EC50 was 161 nM and the “SMN Activity Fold” value was 2.47 fold.
With `CN(c1nnc(-c2cc3ccccc3n(C)c2=O)s1)C1CC(C)(C)NC(C)(C)C1` [Example 104, 1-methyl-3-(5-(methyl(2,2,6,6-tetramethylpiperidin-4-yl)amino)-1,3,4-thiadiazol-2-yl)quinolin-2(1H)-one] the EC50 was 100 nM and the “SMN Activity Fold” value was 2.76 fold.
In the case of `Clc1cc(-c2cn[nH]c2)ccc1-c1nnc(N2C[C@H]3CNC[C@H]3C2)s1` [Example 105, 2-(2-chloro-4-(1H-pyrazol-4-yl)phenyl)-5-((3aR,6aS)-hexahydropyrrolo[3,4-c]pyrrol-2(1H)-yl)-1,3,4-thiadiazole Hydrochloride Salt], the EC50 is reported as 181 nM and the “SMN Activity Fold” value is reported as 2.21 fold.
For `Clc1cc(-c2cn[nH]c2)ccc1-c1nnc(N2CCC3(CCCNC3)C2)s1` (centres unmarked) [Example 106, 2-(2-chloro-4-(1H-pyrazol-4-yl)phenyl)-5-(2,7-diazaspiro[4.5]decan-2-yl)-1,3,4-thiadiazole•Hydrochloride Salt], the EC50 was 1660 nM and the “SMN Activity Fold” value was 2.50 fold.
In the case of `OC[C@H]1CN(c2nnc(-c3ccc(-c4cn[nH]c4)cc3Cl)s2)CCN1` [Example 107, (R)-(4-(5-(2-chloro-4-(1H-pyrazol-4-yl)phenyl)-1,3,4-thiadiazol-2-yl)piperazin-2-yl)methanol•Hydrochloride Salt], the EC50 is reported as 4540 nM and the “SMN Activity Fold” value is reported as 2.06 fold.
With `CN(c1nnc(-c2cc3cc(C#N)ccc3s2)s1)C1CC(C)(C)NC(C)(C)C1` [Example 108, 2-(5-(methyl(2,2,6,6-tetramethylpiperidin-4-yl)amino)-1,3,4-thiadiazol-2-yl)benzo[b]thiophene-5-carbonitrile] the EC50 was 539 nM and the “SMN Activity Fold” value was 2.72 fold.
For `CN(c1nnc(-c2sc3ccccc3c2Cl)s1)C1CC(C)(C)NC(C)(C)C1` [Example 109, 5-(3-chlorobenzo[b]thiophen-2-yl)-N-methyl-N-(2,2,6,6-tetramethylpiperidin-4-yl)-1,3,4-thiadiazol-2-amine], the EC50 was 534 nM and the “SMN Activity Fold” value was 2.75 fold.
